Results taken from patent US20090143279A1 (priority 2007, published 2009).
Like-named read-outs stand apart in the source and are kept apart here.

Key:
[1] = test system: C2C12 myotubes; conditions: for Viability (composite Z-score): normalized score vs mock-treated (DMSO) wells
[2] = test system: mtOXPHOS transcripts; type: cell-based, mouse; conditions: for mitoOX (composite Z-score): normalized score vs mock-treated (DMSO) wells
[3] = test system: mitochondrial membrane potential; type: cell-based, mouse; conditions: for ΔΨm (composite Z-score): normalized score vs mock-treated (DMSO) wells
[4] = test system: nuOXPHOS transcripts; type: cell-based, mouse; conditions: for nucOX (composite Z-score): normalized score vs mock-treated (DMSO) wells
[5] = test system: OXPHOS gene expression; type: cell-based, mouse; conditions: for GE-HTS (composite Z-score): normalized score vs mock-treated (DMSO) wells
[6] = test system: reactive oxygen species; type: cell-based, mouse; conditions: for ROS (composite Z-score): normalized score vs mock-treated (DMSO) wells
[7] = test system: cytochrome c; type: cell-based, mouse; conditions: for cyt c (composite Z-score): normalized score vs mock-treated (DMSO) wells
[8] = test system: cellular dehydrogenase activity; conditions: for MTT (composite Z-score): normalized score vs mock-treated (DMSO) wells
[9] = composite Z-score vs DMSO, Conc 20 μM
[10] = composite Z-score vs DMSO wells, Conc 20 μM
[11] = normalized composite Z-score vs mock-treated (DMSO) wells, Conc 20 μM
[12] = composite Z-score vs mock-treated (DMSO) wells, Conc 20 μM

Chain of cytochrome c (P62897 whole entry): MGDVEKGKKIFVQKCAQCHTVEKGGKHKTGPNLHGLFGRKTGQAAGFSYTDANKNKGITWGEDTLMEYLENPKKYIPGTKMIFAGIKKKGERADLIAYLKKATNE

O=C(O)c1cc(O)c2c(c1)[C@H]([C@H]1c3cc(C(=O)O)cc(O)c3C(=O)c3c(O[C@@H]4O[C@H](CO)[C@@H](O)[C@H](O)[C@H]4O)cccc31)c1cccc(O[C@@H]3O[C@H](CO)[C@@H](O)[C@H](O)[C@H]3O)c1C2=O [sennoside A]
Viability [1, 9]: 0.602 | mitoOX [2, 9]: −1.628 | ΔΨm [3, 9]: −0.640 | nucOX [4, 9]: −1.093 | GE-HTS [5, 9]: −1.374 | ROS [6, 9]: 0.137 | cyt c [7, 9]: 0.362 | MTT [8, 9]: −0.769

CC1(C)[C@@H](O[C@H]2O[C@H](C(=O)O)[C@@H](O)[C@H](O)[C@H]2O[C@@H]2O[C@H](C(=O)O)[C@@H](O)[C@H](O)[C@H]2O)CC[C@]2(C)[C@H]3C(=O)C=C4[C@@H]5C[C@@](C)(C(=O)O)CC[C@]5(C)CC[C@@]4(C)[C@]3(C)CC[C@@H]12 [glycyrrhizic acid]
Viability [1, 9]: 0.254 | mitoOX [2, 9]: −0.753 | ΔΨm [3, 9]: −0.606 | nucOX [4, 9]: −0.227 | GE-HTS [5, 9]: −0.424 | ROS [6, 9]: 0.578 | cyt c [7, 9]: 0.339 | MTT [8, 9]: −0.746

CCn1cc(C(=O)O)c(=O)c2cnc(N3CCNCC3)nc21 [pipemidic acid]
Viability [1, 10]: −0.716 | mitoOX [2, 10]: −0.333 | ΔΨm [3, 10]: −0.736 | nucOX [4, 10]: 0.264 | GE-HTS [5, 10]: 0.045 | ROS [6, 10]: 0.010 | cyt c [7]: 0.101 | cyt c [7, 10]: 0.140 | MTT [8, 10]: −0.367

CN1CCC[C@H]1c1cccnc1 [nicotine]
Viability [1]: −0.093 | mitoOX [2]: −1.705 | ΔΨm [3]: −0.423 | nucOX [4]: −1.032 | GE-HTS [5]: −1.360 | ROS [6]: 0.503 | cyt c [7]: 0.348 | MTT [8]: −1.228

CC[C@@H](C(=O)[C@@H](C)[C@@H](O)[C@H](C)CCc1ccc(C)c(O)c1C(=O)O)[C@H]1O[C@](CC)([C@H]2CC[C@](O)(CC)[C@H](C)O2)C[C@@H]1C [lasalocid, reference compound]
Viability [1, 9]: −1.090 | mitoOX [2, 9]: −4.908 | ΔΨm [3, 9]: −1.178 | nucOX [4, 9]: 0.274 | GE-HTS [5, 9]: −1.524 | ROS [6, 9]: −2.993 | cyt c [7, 9]: −1.690 | MTT [8, 9]: −1.771

methyl 7-deshydroxypyrogallin-4-carboxylate
Viability [1, 11]: −0.873 | mitoOX [2, 11]: −1.395 | ΔΨm [3, 11]: −1.695 | nucOX [4, 11]: −1.394 | GE-HTS [5, 11]: −1.502 | ROS [6, 11]: 0.145 | cyt c [7, 11]: 0.133 | MTT [8, 11]: −1.261

N#Cc1c(Cl)c(Cl)c(Cl)c(C#N)c1Cl [tetrachloroisophthalonitrile]
Viability (composite Z-score) ([1]; Conc 20 μM): −5.297 | mitoOX (composite Z-score) ([2]; Conc 20 μM): −1.780 | ΔΨm (composite Z-score) ([3]; Conc 20 μM): −4.269 | nucOX (composite Z-score) ([4]; Conc 20 μM): −3.990 | GE-HTS (composite Z-score) ([5]; Conc 20 μM): −3.510 | ROS (composite Z-score) ([6]; Conc 20 μM): −3.975 | cyt c (composite Z-score) ([7]; Conc 20 μM): −5.292 | MTT (composite Z-score) ([8]; Conc 20 μM): −6.675

COc1cc2c(cc1OC)[C@@H]1C(=O)c3ccc(OC)c(CC=C(C)C)c3O[C@@H]1CO2 [rotenonic acid, methyl ether]
Viability [1, 12]: 0.582 | mitoOX [2, 12]: −4.305 | ΔΨm [3, 12]: −3.751 | nucOX [4, 12]: −1.024 | GE-HTS [5, 12]: −2.268 | ROS [6, 12]: −3.513 | cyt c [7, 12]: −3.644 | MTT [8, 12]: −3.898

COC(=O)[C@H](O)[C@H]1C(C)(C)[C@H](OC(C)=O)[C@@H]2CC3=C4CC(=O)O[C@@H](c5ccoc5)[C@]4(C)CC[C@@H]3[C@@]1(C)C2=O [swietenolide-3-acetate]
Viability [1, 12]: −0.503 | mitoOX [2, 12]: −0.838 | ΔΨm [3, 12]: 1.006 | nucOX [4, 12]: −1.093 | GE-HTS [5, 12]: −1.057 | ROS [6, 12]: 0.237 | cyt c [7, 12]: 0.668 | MTT [8, 12]: −0.776

CCOC(=O)[N-]c1cn(N2CCOCC2)n[o+]1 [molsidomine]
Viability [1, 10]: −0.665 | mitoOX [2, 10]: 0.106 | ΔΨm [3, 10]: −0.537 | nucOX [4, 10]: 0.331 | GE-HTS [5, 10]: 0.250 | ROS [6, 10]: −0.398 | cyt c [7]: −0.533 | cyt c [7, 10]: 0.339 | MTT [8, 10]: −0.651

CO[C@H]1[C@H](O)[C@H](O[C@H]2CC[C@@]3(C=O)[C@H](CC[C@@H]4[C@@H]3CC[C@]3(C)[C@@H](C5=CC(=O)OC5)CC[C@]43O)C2)O[C@@H](C)[C@@H]1O [peruvoside]
Viability [1, 10]: 0.426 | mitoOX [2, 10]: 0.324 | ΔΨm [3, 10]: −0.906 | nucOX [4, 10]: 0.297 | GE-HTS [5, 10]: 0.328 | ROS [6, 10]: 0.997 | cyt c [7, 10]: 0.075 | MTT [8, 10]: −1.190

COc1ccc(/C=C/C(=O)O)cc1OC [dimethylcaffeic acid]
Viability (composite Z-score) ([1]; Conc 20 μM): 0.147 | mitoOX (composite Z-score) ([2]; Conc 20 μM): −0.885 | ΔΨm (composite Z-score) ([3]; Conc 20 μM): −0.061 | nucOX (composite Z-score) ([4]; Conc 20 μM): −0.838 | GE-HTS (composite Z-score) ([5]; Conc 20 μM): −0.924 | ROS (composite Z-score) ([6]; Conc 20 μM): −0.142 | cyt c (composite Z-score) ([7]; Conc 20 μM): 0.804 | MTT (composite Z-score) ([8]; Conc 20 μM): −1.206
